# Source: patent US20230124862A1, “BISMUTH THIOL COMPOUNDS AND COMPOSITIONS AND METHODS OF TREATING MICROBIAL CO-INFECTIONS” (Microbion Corporation, priority 2020, published 2023)
# Values joined by “and” are separate entries in the source; they are usually repeats but may differ in a detail not shown here. Equal values may be shown once. Read-outs that look alike come from different tables or passages of the source. Starred links: 1 amine or outer side, 2 acyl side, 3 side chain; linkers in the order of their positions; H or OH if unused. Positions of bridges follow the written chain, without caps; N, C: chain ends. Non-standard residues stand in square brackets, D forms with d. Residues, ends and D or L forms follow the SMILES beside them. *: point of attachment. hTyr(3S-OH,4S-OH,3'-OSO3H) = N[C@H](C(=O)O)[C@H](O)[C@@H](O)c1ccc(O)c(OS(=O)(=O)O)c1; Orn(4R-OH,5R-OH) = O=C([C@H](C[C@@H](O)[C@@H](O)N[*:3])N[*:1])[*:2]; Pro(3S-OH,4S-Me) = C[C@H]1CN[C@H](C(=O)O)[C@H]1O; X1 = CCCCCOc1ccc(-c2cc(-c3ccc(C(=O)*)cc3)no2)cc1; Gln(3R-OH) = NC(=O)C[C@@H](O)[C@H](N)C(=O)O; Hyp = O=C(O)[C@@H]1C[C@@H](O)CN1
# Experiments:
# Candida krusei [1] = assay: Antifungal broth microdilution (Example 13); assay type: cell-based
# Aspergillus spp. = assay: Antifungal broth microdilution (Example 13); assay type: cell-based, A. niger, A. terreus, A. fumigatus, A. flavus
# [2] = test system: C. parapsilosis ATCC 22019; assay: Antifungal broth microdilution (Example 13), QC organism; assay type: cell-based, Candida parapsilosis; conditions: comparators, single value
# Candida krusei [3] = conditions: C. krusei ATCC 6258, CLSI established QC range, cited from earlier work
# [4] = test system: C. parapsilosis ATCC 22019; conditions: cited from earlier work
# E. coli ATCC 25922 = assay: MIC control strain; conditions: QC organism, Example 13
# S. aureus ATCC 29213 [5] = assay: MIC control strain; conditions: QC organism, Example 13
# S. aureus ATCC 29213 [6] = conditions: control strain ATCC 29213; cited from earlier work
# Enterobacteriaceae [7] = assay: Broth microdilution MIC (Example 11); assay type: cell-based, E. coli, K. pneumoniae, Enterobacter cloacae
# [8] = test system: P. aeruginosa and A. baumannii; assay: Broth microdilution MIC (Example 11); assay type: cell-based, Pseudomonas aeruginosa, Acinetobacter baumannii
# S. aureus [9] = assay: Broth microdilution MIC (Example 11); assay type: cell-based, Staphylococcus aureus
# Enterococcus spp. = assay: Broth microdilution MIC (Example 11); assay type: cell-based, E. faecalis, E. faecium; conditions: Lev^R Cip^R Ery^R
# Enterobacteriaceae [10] = conditions: E. coli MMX 102 (ATCC 25922); CLSI QC ranges shown in parenthesis; cited from earlier work
# [11] = test system: P. aeruginosa and A. baumannii; conditions: P. aeruginosa MMX 103 (ATCC 27853); CLSI QC ranges shown in parenthesis; cited from earlier work
# S. aureus [12] = conditions: S. aureus MMX 101 (ATCC 29213); cited from earlier work
compound,measurement,setting,value
CC[C@H](C)C[C@H](C)CCCCCCCCC(=O)N[C@H]1C[C@@H](O)[C@@H](NCCN)NC(=O)[C@@H]2[C@@H](O)CCN2C(=O)[C@H]([C@H](O)CCN)NC(=O)[C@H]([C@H](O)[C@@H](O)c2ccc(O)cc2)NC(=O)[C@@H]2C[C@@H](O)CN2C(=O)[C@H]([C@@H](C)O)NC1=O [Caspofungin],MIC 24 hr,"Candida krusei [1]; C. krusei ATCC 6258, 24 hr, comparators, single value",0.25 µg/mL
same,MIC 48 hr,"Candida krusei [1]; C. krusei ATCC 6258, 48 hr, comparators, single value",0.25 µg/mL
same,MIC 24 hr (MEC),"Aspergillus spp.; A. flavus ATCC 204304, 24 hr, MEC",0.12 (MEC)
same,MIC 48 hr (MEC),"Aspergillus spp.; A. flavus ATCC 204304, 48 hr, MEC",0.06 (MEC)
same,MIC 24 hr (MEC),"Aspergillus spp.; A. fumigatus ATCC MYA-3626, 24 hr, MEC",0.06 (MEC)
same,MIC 48 hr (MEC),"Aspergillus spp.; A. fumigatus ATCC MYA-3626, 48 hr, MEC",0.06 (MEC)
same,MIC 24 hr,[2],0.25 µg/mL
same,MIC 48 hr,[2],0.5 µg/mL
same,QC Range 24 hr,Candida krusei [3],0.12-1
same,QC Range 48 hr,Candida krusei [3],0.25-2
same,QC Range 24 hr,"[4]; C. parapsilosis ATCC 22019, CLSI established QC range, 24 hr",0.25-1
same,QC Range 48 hr,"[4]; C. parapsilosis ATCC 22019, CLSI established QC range, 48 hr",0.5-4
same,MIC 24 hr,E. coli ATCC 25922,>64
same,MIC 24 hr,S. aureus ATCC 29213 [5],>64
"CC[C@H]1OC(=O)[C@H](C)[C@@H](O[C@H]2C[C@@](C)(OC)[C@@H](O)[C@H](C)O2)[C@H](C)[C@@H](O[C@@H]2O[C@H](C)C[C@H](N(C)C)[C@H]2O)[C@](C)(OC)C[C@@H](C)C(=O)[C@H](C)[C@@H](O)[C@]1(C)O [Clarithromycin, reference compound]",Expected MIC: goal (acceptable range),S. aureus ATCC 29213 [6],0.25 (0.12-0.5) mcg/mL
"CCCCCOc1ccc(-c2cc(-c3ccc(C(=O)N[C@H]4C[C@@H](O)[C@@H](O)NC(=O)[C@@H]5[C@@H](O)[C@@H](C)CN5C(=O)[C@H]([C@H](O)CC(N)=O)NC(=O)[C@H]([C@H](O)[C@@H](O)c5ccc(O)c(OS(=O)(=O)O)c5)NC(=O)[C@@H]5C[C@@H](O)CN5C(=O)[C@H]([C@@H](C)O)NC4=O)cc3)no2)cc1 [Micafungin] (X1-[Orn(4R-OH,5R-OH)]T[Hyp][hTyr(3S-OH,4S-OH,3'-OSO3H)][Gln(3R-OH)][Pro(3S-OH,4S-Me)]; lactam 1-C)",MIC 24 hr,Candida krusei [1],0.5 µg/mL
same,MIC 48 hr,Candida krusei [1],0.5 µg/mL
same,MIC 24 hr (MEC),Aspergillus spp.,0.06 (MEC) and 0.03 (MEC)
same,MIC 48 hr (MEC),Aspergillus spp.,0.008 (MEC)
same,MIC 24 hr,[2],0.5 µg/mL
same,MIC 48 hr,[2],2 µg/mL
same,QC Range 24 hr,Candida krusei [3],0.12-0.5
same,QC Range 48 hr,Candida krusei [3],0.12-0.5
same,QC Range 24 hr,[4],0.5-2
same,QC Range 48 hr,[4],0.5-4
same,MIC 24 hr,E. coli ATCC 25922,>64
same,MIC 24 hr,S. aureus ATCC 29213 [5],>64
Gentamicin,MIC,"Enterobacteriaceae [7]; E. cloacae MMX 5981 (ATCC BAA-2468), NDM-1, Lev^R MEM^R CAZ^R Gm^R",>64 µg/mL
same,MIC,"Enterobacteriaceae [7]; E. coli MMX 102 (ATCC 25922), QC",1 µg/mL
same,MIC,"Enterobacteriaceae [7]; E. coli MMX 5980 (ATCC BAA-2469), NDM-1, Lev^R MEM^R CAZ^R Gm^R",>64 µg/mL
same,MIC,"Enterobacteriaceae [7]; E. coli MMX 8423, ESBL, Lev^R CAZ^R Gm^R",64 µg/mL
same,MIC,"Enterobacteriaceae [7]; E. coli MMX 8424, ESBL, CAZ^R",0.25 µg/mL
same,MIC,"Enterobacteriaceae [7]; E. coli MMX 8425, ESBL, Lev^R CAZ^R Gm^R",>64 µg/mL
same,MIC,"Enterobacteriaceae [7]; K. pneumoniae MMX 4622, KPC-2, MEM^R CAZ^R",0.25 µg/mL
same,MIC,"Enterobacteriaceae [7]; K. pneumoniae MMX 4623, KPC-2, MEM^R CAZ^R Gm^R",64 µg/mL
same,MIC,"Enterobacteriaceae [7]; K. pneumoniae MMX 4653, KPC-3, Lev^R MEM^R CAZ^R",1 µg/mL
same,MIC,"Enterobacteriaceae [7]; K. pneumoniae MMX 4683, KPC-2, Lev^R MEM^R CAZ^R",1 µg/mL
same,MIC,"Enterobacteriaceae [7]; K. pneumoniae MMX 4684, ESBL, MEM^R",0.25 µg/mL
same,MIC,"Enterobacteriaceae [7]; K. pneumoniae MMX 4685, ESBL, Lev^R MEM^R CAZ^R",1 µg/mL
same,MIC,"Enterobacteriaceae [7]; K. pneumoniae MMX 4694, KPC-3, Lev^R MEM^R CAZ^R",8 µg/mL
same,MIC,"Enterobacteriaceae [7]; K. pneumoniae MMX 5979, NDM-1, Lev^R MEM^R CAZ^R Gm^R",>64 µg/mL
same,MIC,"[8]; A. baumannii MMX 2592, MDR, Lev^R Cip^R MEM^R CAZ^R Gm^R",>64 µg/mL
same,MIC,"[8]; A. baumannii MMX 2593, MDR, Lev^R Cip^R MEM^R CAZ^R Gm^R",>64 µg/mL
same,MIC,"[8]; A. baumannii MMX 3372, MDR, Cip^R MEM^1 CAZ^1",0.5 µg/mL
same,MIC,"[8]; A. baumannii MMX 3373, Sensitive",0.12 µg/mL
same,MIC,"[8]; A. baumannii MMX 4651 (NCTC 13304), MDR: OXA-27, Lev^R Cip^R MEM^R CAZ^R Gm^1",8 µg/mL
same,MIC,"[8]; P. aeruginosa MMX 103 (ATCC 27853), QC",1 µg/mL
same,MIC,"[8]; P. aeruginosa MMX 1381, MDR, Lev^R Cip^R MEM^R CAZ^R",8 µg/mL
same,MIC,"[8]; P. aeruginosa MMX 2562, MDR, Lev^R Cip^R MEM^R CAZ^R",8 µg/mL
same,MIC,"[8]; P. aeruginosa MMX 3991, MDR, Lev^R Cip^R MEM^R CAZ^R",4 µg/mL
same,MIC,"[8]; P. aeruginosa MMX 4654, IMP-7, Lev^R Cip^R MEM^R CAZ^R",>64 µg/mL
same,MIC,"[8]; P. aeruginosa MMX 4697, VIM-2, Lev^R Cip^R MEM^R CAZ^R",4 µg/mL
same,MIC,"S. aureus [9]; S. aureus MMX 101 (ATCC 29213), QC, MSSA",0.12 µg/mL
same,MIC,"S. aureus [9]; S. aureus MMX 5373, MRSA, Lev^R Cip^R CC^R Ery^R Ox^R",0.25 µg/mL
same,MIC,"S. aureus [9]; S. aureus MMX 6311, MRSA, Lev^R Cip^R CC^R Ery^R Ox^R",0.25 µg/mL
same,MIC,"S. aureus [9]; S. aureus MMX 9203, MRSA, Lev^R Cip^R Ery^R Ox^R",0.12 µg/mL
same,MIC,"S. aureus [9]; S. aureus MMX 9204, MRSA, Lev^R Cip^R Ery^R Ox^R",0.25 µg/mL
same,MIC,"S. aureus [9]; S. aureus MMX 9205, MRSA, Lev^R Cip^R CC^R Ery^R Ox^R",0.25 µg/mL
same,MIC,"Enterococcus spp.; E. faecalis MMX 8960, VRE",>64 µg/mL
same,MIC,"Enterococcus spp.; E. faecalis MMX 8961, VRE",8 µg/mL
same,MIC,"Enterococcus spp.; E. faecalis MMX 8962, VRE",>64 µg/mL
same,MIC,"Enterococcus spp.; E. faecium MMX 485, VRE vanA",>64 µg/mL
same,MIC,"Enterococcus spp.; E. faecium MMX 752, VRE vanA",>64 µg/mL
same,"MIC, CLSI QC range",Enterobacteriaceae [10],(0.25-1) μg/mL
same,"MIC, CLSI QC range",[11],(0.5-2) μg/mL
same,CLSI QC range of MIC,S. aureus [12],(0.12-1) μg/mL
